Values of other authors in patent publication US11497789B2, “Formulations of vancomycin” (SciDose Pharma LLC, priority 2016, dated 2022).

Details: after reconstitution of the lyophilized product

CN[C@H](CC(C)C)C(=O)N[C@H]1C(=O)N[C@@H](CC(N)=O)C(=O)N[C@H]2C(=O)N[C@H]3C(=O)N[C@H](C(=O)N[C@H](C(=O)O)c4cc(O)cc(O)c4-c4cc3ccc4O)[C@H](O)c3ccc(c(Cl)c3)Oc3cc2cc(c3O[C@@H]2O[C@H](CO)[C@@H](O)[C@H](O)[C@H]2O[C@H]2C[C@](C)(N)[C@H](O)[C@H](C)O2)Oc2ccc(cc2Cl)[C@H]1O [Vancomycin]
time stable in water after reconstitution: approximately 24 hours
